Results on eight molecules are retold here after US8697379B2, “Lysosomotropic inhibitors of acid ceramidase” (MUSC Foundation for Research Development, priority 2008, dated 2014).

pIC50: −log10 of the molar value. Values joined by “and” are separate entries in the source; they are usually repeats but may differ in a detail not shown here. Identical values can stand only once. Like-named read-outs stand apart in the source and are kept apart here.

In one data set the test system is L929 cells. Briefly: TNF-α induced PGE2 release from L929 mouse fibroblast cells. The format is cell-based. To be noted: TNF-α treated L929 mouse fibroblast cells; preliminary data.
Data set [1] concerns lysosomes. As to conditions: previously studied non-Class E inhibitor; Bielawska et al. 2008; cited from earlier work.
Data set [2] addresses T1, acid ceramidase (ACDase) (Homo sapiens, UniProt Q13510).
T1 sequence (Q13510 22-142 limits assumed): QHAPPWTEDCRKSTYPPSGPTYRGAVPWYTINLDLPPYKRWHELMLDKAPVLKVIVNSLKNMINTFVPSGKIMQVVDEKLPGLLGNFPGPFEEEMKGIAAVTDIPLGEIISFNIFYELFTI
T1 sequence (Q13510 143-395 limits assumed): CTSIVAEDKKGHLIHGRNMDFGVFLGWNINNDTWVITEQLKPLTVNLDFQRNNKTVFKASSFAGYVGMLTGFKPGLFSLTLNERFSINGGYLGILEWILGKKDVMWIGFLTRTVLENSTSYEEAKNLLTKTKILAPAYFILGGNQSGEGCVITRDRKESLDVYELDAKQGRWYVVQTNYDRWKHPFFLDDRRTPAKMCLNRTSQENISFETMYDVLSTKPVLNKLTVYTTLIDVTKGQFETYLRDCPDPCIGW
The data set is described as follows: Cellular activity of ACDase: MCF-7 cells treated with drug, then lysed and assayed. It counts as cell-based. Set-up: C16-Cer as a substrate and MCF-7 cell lysate as an enzymatic source; endogenous in cells; host or cells: MCF-7 cell lysate. To be noted: 10 μM, 2 h of treatment. The method, then:
(§1) Effects of the inhibitors on the cellular activity of ACDase were determined using cell lysate from the cultured cells previously treated with increasing concentrations of drugs. For this type of assay, the drugs are allowed to enter the cell for a specific time, then cell lysates were prepared by homogenization and assays performed as described above. Effects on endogenous Cers and Sph were determined using LC-MS/MS analysis as previously described. See Bielawska et al., Bioorg. Med. Chem., 16, 1032-1045 (2008); and Bielawska et al., Methods, 39, 82-91 (2006). Final results were expressed as the level of the particular sphingolipid (SPL)/phospholipids (Pi) determined from the Bligh and Dyer lipid extract and expressed as SPLs/Pi (pmol/nmol).

The test system of data set [3] is MCF-7 breast carcinoma cells. Briefly: MTT cell viability assay in MCF-7 breast carcinoma cells. The format is cell-based, human. Here is the method:
Class E compounds were administrated to cells capable of undergoing differentiation in amounts effective to induce differentiation of several cancer cell lines: MCF-7, PPC1, SCC14a, A549, and J3DR4. Cell viability assay was performed by the 3-(4,5-Dimethylthiazol-2-yl)-2,5-diphenyltetrazolium bromide (MTT) assay. Cells were seeded into 96-well plate overnight before treatment with increasing drug concentrations (0-100 μM) as previously described. See Hansen et al., J. Immunol. Methods, 119, 203-210 (1989). After treatment, plates were incubated for an additional period of time (24-72 h). Changes in cell numbers were determined and expressed as a percentage of the untreated controls.
Class E prodrugs were administrated to MCF-7 cells capable of undergoing differentiation in amounts effective to induce differentiation. Cell viability assay was performed by the MTT assay. Cells were seeded into 96-well plate overnight before treatment with increasing drug concentrations (0-100 μM) as previously described. See Hansen et al., J. Immunol. Methods, 119, 203-210 (1989). After treatment, plates were incubated for an additional period of time (24-72 h). Changes in cell numbers were determined and expressed as a percentage of the untreated controls. 50% inhibitory concentrations were determined by comparing cell number changes in prodrug treated samples to control samples.
In general terms: Tetrazolium assays rely on reduction of a dye to a coloured formazan, in cell work by metabolically active cells.

Data set [4] concerns cellular sphingolipids (Cn-Cer, Sph, S1P) in MCF-7 cells. Briefly: Endogenous ceramide, Sph and S1P levels in MCF-7 cells by LC-MS/MS. It counts as cell-based, human. The method, then: as §1
For data set [5], the system named is lysosomes. The data set is described as follows: Lysosomal stability by FACS analysis with LYSOTRACKER red. The format is cell-based. As to conditions: for lysosomal stability: 30 μM. The method, then: Effects of Class E inhibitors on ACDase protein degradation were determined by Western blotting as previously described. See Bielawska et al., Bioorg. Med. Chem., 16, 1032-1045 (2008); Liu et al., Front. Biosci., 13, 2293-2298 (2008); and Holman et al., Cancer Chemother. Pharmacol., 61, 231-242 (2008). Lysosomal stability and mitochondrial stability were determined by FACS analysis using LYSOTRACKER™ red (Molecular Probes, Eugene, Oreg., United States of America) or JC-1 mitochondrial dye (Molecular Probes, Eugene, Oreg., United States of America) as previously described. See Holman et al., Cancer. Chemother. Pharmacol., 61, 231-242 (2008).
On the technique in general: A flow cytometer gives signals particle by particle.

Another data set deals with Caspase 3/7. The data set is described as follows: Apo-ONE Homogeneous Caspase 3/7 assay in MCF-7 cells. It counts as cell-based, human. To be noted: 24 h incubation. The method, then: The apoptotic effect of LCL464 was also investigated in MCF-7 cells via its effect on Caspase 3/7, a group of cysteine proteases that mediate execution. This can be activated by apoptotic signals from both death receptor and intracellular/mitochondrial pathways. Briefly, MCF-7 cells were seeded at a density of 5×10^3/50 μL/well overnight in 96 well plates. Then cells were treated with vehicle or diluted LCL464. After 8 and 24 hours incubation, Caspase 3/7 activities were measured using the Apo-ONE Homogeneous Caspase 3/7 Assay Kit according to the manufacturer's instructions (Promega, Madison, Wis., United States of America). LCL464 causes a dose dependent induction of apoptosis following 24 h incubation, causing increase of Caspase 3/7 activities to 140% and 200% for 10 μM and 20 μM, respectively.

In data set [6] the target is T1, acid ceramidase (ACDase). The data set is described as follows: In vitro ACDase activity assay, release of radioactive palmitic acid from [3H]C16-Cer in MCF-7 cell lysate. It counts as biochemical. Also on record: C16-Cer as a substrate and MCF-7 cell lysate as an enzymatic source; endogenous in cells; host or cells: MCF-7 cell lysate. Here is the method:
The in vitro assay was carried out according to a previously described procedure (see Zeidan et al., J. Biol. Chem., 281, 24695-24703 (2006)) using [^3H] C16-Cer as a substrate and MCF-7 cell lysate as an enzymatic source. Briefly, cell lysate was prepared under acidic conditions (i.e., pH 4.5, 50 mM sodium acetate, 5 mM magnesium chloride, 1 mM EDTA and 0.5% Triton X-100), and protein level was determined using BCA protein assay kit (Pierce, Rockford, Ill., United States of America). ACDase activity was determined based on the amount of the released radioactive palmitic acid counted by LS 6500 multi-purpose scintillation counter (Beckman Coulter, Inc., Fullerton, Calif., United States of America). The results are presented as percentage of control.

A short description of data set [7]: Breakdown of prodrugs under the assay conditions. The format is in vitro ADME. As to conditions: under the various assay conditions; preliminary.
Setting [8] is: 48 hours of treatment, Example 6, read-out: IC50, MCF-7 cell growth (50% of surviving cells as compared to the control).
Setting [9] is: MCF-7 cells, MTT, 24 hours, Example 7, hydrochloride, read-out: IC50/24 h.
[10] abbreviates: 10 μM, 5 hours, and time course.

Regarding `CCCCCCCCCCCCCC(=O)N[C@H](C)[C@@H](O)c1ccccc1` [D-MAPP, D-erythro-2-(N-myristolyamino)-1-phenyl-1-propanol], the “release of PGE2” value in the data set on L929 cells is on record as “inhibited”.

`CCCCCCCCCCCCCCN[C@H](CO)[C@H](O)c1ccc([N+](=O)[O-])cc1` [LCL204, (1R,2R)-2-N-(tetradecylamino)-1-(4′-nitrophenyl)-1,3-propandiol]: the “lysosomal stability as compared to the control (permanent destabilization)” value with lysosomes [1] was ~90%. At acid ceramidase (ACDase) [2], the “ACDase inhibition at the cellular level” value is “about 35%”.

For `O=C(CCCCCCCCCCCN1CCOCC1)N[C@H](CO)[C@H](O)c1ccc([N+](=O)[O-])cc1` [LCL449, (1R,2R)-2-[N-(12′-{1″-morpholine}-dodecanoyl)-amino]-1-(4″-nitrophenyl)-1,3-propandiol], in data set [3] (setting [8]), the pIC50 was 4.30.

Turning to `CN(C)CCCCCCCCCCCC(=O)N[C@H](CO)[C@H](O)c1ccc([N+](=O)[O-])cc1` [LCL464, (1R,2R)-2-[N-(12′-N,N-dimethylamino-dodecanoyl)-amino]-1-(4″-nitrophenyl)-1,3-propandiol], the “level of C18-Cer, % of control” value in data set [4] (50 μM, at 24 hours) is reported as ~900%. Further, the “level of C16-Cer (percentage of control)” value in data set [4] (50 μM, early effect) is given as ~240%. Besides, the “concentration at which elevation of C18-Cer was observed” value in [4] (24 hours, dose range 0-50 μM) is “above 20 μM”. For the same molecule, the “lysosomal dysfunction (LYSOTRACKER Red fluorescence)” value in the data set on lysosomes [5] (10 μM, 1 and 5 hours of treatment) is “did not cause lysosomal dysfunction”. Also, the lysosomal stability was 40% with lysosomes [5] (1 h), 61% in the data set on lysosomes [5] (5 h) and > 100% in the data set with lysosomes [5] (24 h). Further, the pIC50 was 4.99 in [3] (setting [8]) and 5.14 in data set [3] (72 hr treatment, Example 6, read-out: IC50, MCF-7 cell growth). Moreover, the “Caspase 3/7 activities (percentage of control)” value is recorded as 140% with Caspase 3/7 (10 μM) and 200% with Caspase 3/7 (20 μM). The “inhibition of ACDase in vitro” value on acid ceramidase (ACDase) [6] (50 μM inhibitor, [3H]C16-Cer substrate) was 55%. Also, the “ACDase inhibition at the cellular level” value at acid ceramidase (ACDase) [2] was found to be 65%.

`CCCCCCCCCCCCCC(=O)N[C@H](COC(=O)CN(C)C)[C@H](OC(=O)CN(C)C)c1ccc([N+](=O)[O-])cc1.Cl` [LCL521, (1R,2R)-2-[N-tetradecanoyl)-amino]-1-(4″-nitrophenyl)-1,3-propandiol-1,3-O-bis-dimethylglycine hydrochloride]: the pIC50 in [3] (setting [9]) was ~5.05 and 5.05; in data set [3] (MCF-7 cells, MTT, 48 hours, Example 7, read-out: IC50/48 h), 5.06; in data set [3] (MCF-7 cells, MTT, 72 hours, Example 7, read-out: IC50/72 h), 5.13.

Take `CCCCCCCCCCCCCC(=O)N[C@H](COC(=O)CN(C)C)[C@H](OC(=O)CN(C)C)c1ccc([N+](=O)[O-])cc1.Cl` [LCL521]: in data set [4] (setting [10]), the “cellular level of Sph and S1P” value is listed as “decreased”; the “levels of pro-apoptotic C16- and C18-Cer and total ceramide” value was “increased”. Moreover, the “delivery to the lysosomes (LYSOTRACKER Red fluorescence)” value in the data set on lysosomes [5] (5 μM or 10 μM, 1 hour) is reported as “appears to be delivered to the lysosomes”. In [7], the “breakdown / metabolism of the prodrug” value was “slowly metabolized to the mono-ester LCL581 and B13”. In addition, the “effect on acid ceramidase activity in vitro” value at acid ceramidase (ACDase) [6] (concentration dependent (FIG. 13)) was “inhibited acid ceramidase in vitro”.

Consider `CCCCCCCCCCCCCC(=O)N[C@H](CO)[C@H](OC(=O)CN(C)C)c1ccc([N+](=O)[O-])cc1.Cl` [LCL522, (1R,2R)-2-[N-tetradecanoyl)-amino]-1-(4″-nitrophenyl)-1,3-propandiol-1-O-dimethylglycine hydrochloride], for which, in data set [3] (setting [9]), the pIC50 was ~5.19 and 5.19.

As for `CCCCCCCCCCCCCC(=O)N[C@H](CO)[C@H](OC(=O)CN(C)C)c1ccc([N+](=O)[O-])cc1.Cl` [LCL522], the “regulation of cellular sphingolipids” value in data set [4] (10 μM, 5 hours) is reported as “behaved similarly to B13”. Besides, the “breakdown / metabolism of the prodrug” value in data set [7] is “breaks down under the various assay conditions to form B13”.
